The test system of the first experiment is 349418-098-R-PDC complex spheroid viability. Kind of experiment: Anticancer human tumor 349418-098-R-PDC patient-derived lung adenocarcinoma cell line growth inhibition [RAS]. The following applies: curve of first compound; second compound 0.00316 µM. The essentials: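 Multi-cell-type spheroids: tumor cells plus HUVEC endothelial cells and mesenchymal stem cells. RAS-pathway inhibitors were combined with targeted agents, each dosed in half-log steps down from clinical Cmax, or from 10 microM when Cmax was unknown.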
By IC50 is commonly meant the point on the concentration scale where inhibition reaches its midpoint. With `CCC(CC)c1cc(NC2CCC(N)C2)n2nccc2n1` (stereo unspecified) + C=CC(=O)N1CCN(c2nc(OCC3CCCN3C)nc3c(F)c(-c4nc(N)cc(C)c4C(F)(F)F)c(Cl)cc23)C(C)C1, the IC50 is 0.72 µM.

Consider `Cc1nc(N2CCC3(CC2)COC(C)C3N)c(CO)nc1Sc1ccnc(N)c1Cl` (stereo unspecified) + C=CC(=O)N1CCN(c2nc(OCC3CCCN3C)nc3c(F)c(-c4nc(N)cc(C)c4C(F)(F)F)c(Cl)cc23)C(C)C1, for which the concentration for half-maximal inhibition (IC50) was above 10 µM.

Take `NC1c2ccccc2OC12CCN(c1cnc3c(N4CCCc5ncccc54)n[nH]c3n1)CC2` (stereo unspecified) + C=CC(=O)N1CCN(c2nc(OCC3CCCN3C)nc3c(F)c(-c4nc(N)cc(C)c4C(F)(F)F)c(Cl)cc23)C(C)C1: the concentration for half-maximal inhibition (IC50) was above 10 µM.

Staying with this experiment, now noted: curve of first compound; second compound 0.01 µM.
`CCC(CC)c1cc(NC2CCC(N)C2)n2nccc2n1` (stereo unspecified) + C=CC(=O)N1CCN(c2nc(OCC3CCCN3C)nc3c(F)c(-c4nc(N)cc(C)c4C(F)(F)F)c(Cl)cc23)C(C)C1: the half-maximal inhibitory concentration (IC50) was found to be 0.996 µM.

For the molecule `Cc1nc(N2CCC3(CC2)COC(C)C3N)c(CO)nc1Sc1ccnc(N)c1Cl` (stereo unspecified) + C=CC(=O)N1CCN(c2nc(OCC3CCCN3C)nc3c(F)c(-c4nc(N)cc(C)c4C(F)(F)F)c(Cl)cc23)C(C)C1, the IC50 was above 10 µM.

As for `NC1c2ccccc2OC12CCN(c1cnc3c(N4CCCc5ncccc54)n[nH]c3n1)CC2` (stereo unspecified) + C=CC(=O)N1CCN(c2nc(OCC3CCCN3C)nc3c(F)c(-c4nc(N)cc(C)c4C(F)(F)F)c(Cl)cc23)C(C)C1, the IC50 was above 10 µM.

Still in this experiment, the particulars now being: curve of first compound; second compound 0.0316 µM.
Regarding `CCC(CC)c1cc(NC2CCC(N)C2)n2nccc2n1` (stereo unspecified) + C=CC(=O)N1CCN(c2nc(OCC3CCCN3C)nc3c(F)c(-c4nc(N)cc(C)c4C(F)(F)F)c(Cl)cc23)C(C)C1, the IC50 came out at 0.797 µM.

For `Cc1nc(N2CCC3(CC2)COC(C)C3N)c(CO)nc1Sc1ccnc(N)c1Cl` (stereo unspecified) + C=CC(=O)N1CCN(c2nc(OCC3CCCN3C)nc3c(F)c(-c4nc(N)cc(C)c4C(F)(F)F)c(Cl)cc23)C(C)C1, the half-maximal inhibitory concentration (IC50) was above 10 µM.

For `NC1c2ccccc2OC12CCN(c1cnc3c(N4CCCc5ncccc54)n[nH]c3n1)CC2` (stereo unspecified) + C=CC(=O)N1CCN(c2nc(OCC3CCCN3C)nc3c(F)c(-c4nc(N)cc(C)c4C(F)(F)F)c(Cl)cc23)C(C)C1, the IC50 was above 10 µM.

Still in this experiment, the particulars now being: curve of first compound; second compound 0.1 µM.
With `CCC(CC)c1cc(NC2CCC(N)C2)n2nccc2n1` (stereo unspecified) + C=CC(=O)N1CCN(c2nc(OCC3CCCN3C)nc3c(F)c(-c4nc(N)cc(C)c4C(F)(F)F)c(Cl)cc23)C(C)C1, the concentration for half-maximal inhibition (IC50) is 0.884 µM.

Take `Cc1nc(N2CCC3(CC2)COC(C)C3N)c(CO)nc1Sc1ccnc(N)c1Cl` (stereo unspecified) + C=CC(=O)N1CCN(c2nc(OCC3CCCN3C)nc3c(F)c(-c4nc(N)cc(C)c4C(F)(F)F)c(Cl)cc23)C(C)C1: the IC50 is above 10 µM.

Consider `NC1c2ccccc2OC12CCN(c1cnc3c(N4CCCc5ncccc54)n[nH]c3n1)CC2` (stereo unspecified) + C=CC(=O)N1CCN(c2nc(OCC3CCCN3C)nc3c(F)c(-c4nc(N)cc(C)c4C(F)(F)F)c(Cl)cc23)C(C)C1, for which the concentration for half-maximal inhibition (IC50) was above 10 µM.

The experiment is the same for the next values; noted with them: curve of first compound; second compound 0.316 µM.
As to `CCC(CC)c1cc(NC2CCC(N)C2)n2nccc2n1` (stereo unspecified) + C=CC(=O)N1CCN(c2nc(OCC3CCCN3C)nc3c(F)c(-c4nc(N)cc(C)c4C(F)(F)F)c(Cl)cc23)C(C)C1, the IC50 amounted to 0.588 µM.

Turning to `Cc1nc(N2CCC3(CC2)COC(C)C3N)c(CO)nc1Sc1ccnc(N)c1Cl` (stereo unspecified) + C=CC(=O)N1CCN(c2nc(OCC3CCCN3C)nc3c(F)c(-c4nc(N)cc(C)c4C(F)(F)F)c(Cl)cc23)C(C)C1, the IC50 was above 10 µM.

In the case of `NC1c2ccccc2OC12CCN(c1cnc3c(N4CCCc5ncccc54)n[nH]c3n1)CC2` (stereo unspecified) + C=CC(=O)N1CCN(c2nc(OCC3CCCN3C)nc3c(F)c(-c4nc(N)cc(C)c4C(F)(F)F)c(Cl)cc23)C(C)C1, the IC50 was above 10 µM.

The same experiment, now with this note: curve of first compound; second compound 1 µM.
`CCC(CC)c1cc(NC2CCC(N)C2)n2nccc2n1` (stereo unspecified) + C=CC(=O)N1CCN(c2nc(OCC3CCCN3C)nc3c(F)c(-c4nc(N)cc(C)c4C(F)(F)F)c(Cl)cc23)C(C)C1: the IC50 is 1.1 µM.

Turning to `Cc1nc(N2CCC3(CC2)COC(C)C3N)c(CO)nc1Sc1ccnc(N)c1Cl` (stereo unspecified) + C=CC(=O)N1CCN(c2nc(OCC3CCCN3C)nc3c(F)c(-c4nc(N)cc(C)c4C(F)(F)F)c(Cl)cc23)C(C)C1, the half-maximal inhibitory concentration (IC50) is above 10 µM.

As for `NC1c2ccccc2OC12CCN(c1cnc3c(N4CCCc5ncccc54)n[nH]c3n1)CC2` (stereo unspecified) + C=CC(=O)N1CCN(c2nc(OCC3CCCN3C)nc3c(F)c(-c4nc(N)cc(C)c4C(F)(F)F)c(Cl)cc23)C(C)C1, the IC50 was above 10 µM.

Still in this experiment, the particulars now being: second compound 0.00316 µM; first compound 0.0316 µM; stronger effect = lower value.
As usually defined, the viability, T/C is the ratio of treated to control. Turning to `CCC(CC)c1cc(NC2CCC(N)C2)n2nccc2n1` (stereo unspecified) + C=CC(=O)N1CCN(c2nc(OCC3CCCN3C)nc3c(F)c(-c4nc(N)cc(C)c4C(F)(F)F)c(Cl)cc23)C(C)C1, the viability, T/C was 114%.

On to `Cc1nc(N2CCC3(CC2)COC(C)C3N)c(CO)nc1Sc1ccnc(N)c1Cl` (stereo unspecified) + C=CC(=O)N1CCN(c2nc(OCC3CCCN3C)nc3c(F)c(-c4nc(N)cc(C)c4C(F)(F)F)c(Cl)cc23)C(C)C1, for which the viability, T/C was 100%.

With `NC1c2ccccc2OC12CCN(c1cnc3c(N4CCCc5ncccc54)n[nH]c3n1)CC2` (stereo unspecified) + C=CC(=O)N1CCN(c2nc(OCC3CCCN3C)nc3c(F)c(-c4nc(N)cc(C)c4C(F)(F)F)c(Cl)cc23)C(C)C1, the viability, T/C is 106%.

Staying with this experiment, now noted: second compound 0.00316 µM; first compound 0.1 µM; stronger effect = lower value.
Turning to `CCC(CC)c1cc(NC2CCC(N)C2)n2nccc2n1` (stereo unspecified) + C=CC(=O)N1CCN(c2nc(OCC3CCCN3C)nc3c(F)c(-c4nc(N)cc(C)c4C(F)(F)F)c(Cl)cc23)C(C)C1, the viability, T/C was 108%.

With `Cc1nc(N2CCC3(CC2)COC(C)C3N)c(CO)nc1Sc1ccnc(N)c1Cl` (stereo unspecified) + C=CC(=O)N1CCN(c2nc(OCC3CCCN3C)nc3c(F)c(-c4nc(N)cc(C)c4C(F)(F)F)c(Cl)cc23)C(C)C1, the viability, T/C was 83.6%.

As to `NC1c2ccccc2OC12CCN(c1cnc3c(N4CCCc5ncccc54)n[nH]c3n1)CC2` (stereo unspecified) + C=CC(=O)N1CCN(c2nc(OCC3CCCN3C)nc3c(F)c(-c4nc(N)cc(C)c4C(F)(F)F)c(Cl)cc23)C(C)C1, the viability, T/C was 85.4%.

Staying with this experiment, now noted: second compound 0.00316 µM; first compound 0.316 µM; stronger effect = lower value.
On to `CCC(CC)c1cc(NC2CCC(N)C2)n2nccc2n1` (stereo unspecified) + C=CC(=O)N1CCN(c2nc(OCC3CCCN3C)nc3c(F)c(-c4nc(N)cc(C)c4C(F)(F)F)c(Cl)cc23)C(C)C1, for which the viability, T/C is 76.1%.

Turning to `Cc1nc(N2CCC3(CC2)COC(C)C3N)c(CO)nc1Sc1ccnc(N)c1Cl` (stereo unspecified) + C=CC(=O)N1CCN(c2nc(OCC3CCCN3C)nc3c(F)c(-c4nc(N)cc(C)c4C(F)(F)F)c(Cl)cc23)C(C)C1, the viability, T/C was 131%.

Turning to `NC1c2ccccc2OC12CCN(c1cnc3c(N4CCCc5ncccc54)n[nH]c3n1)CC2` (stereo unspecified) + C=CC(=O)N1CCN(c2nc(OCC3CCCN3C)nc3c(F)c(-c4nc(N)cc(C)c4C(F)(F)F)c(Cl)cc23)C(C)C1, the viability, T/C was 93.2%.

The experiment is the same for the next values; noted with them: second compound 0.00316 µM; first compound 1 µM; stronger effect = lower value.
`CCC(CC)c1cc(NC2CCC(N)C2)n2nccc2n1` (stereo unspecified) + C=CC(=O)N1CCN(c2nc(OCC3CCCN3C)nc3c(F)c(-c4nc(N)cc(C)c4C(F)(F)F)c(Cl)cc23)C(C)C1: the viability, T/C was 43.2%.

As for `Cc1nc(N2CCC3(CC2)COC(C)C3N)c(CO)nc1Sc1ccnc(N)c1Cl` (stereo unspecified) + C=CC(=O)N1CCN(c2nc(OCC3CCCN3C)nc3c(F)c(-c4nc(N)cc(C)c4C(F)(F)F)c(Cl)cc23)C(C)C1, the viability, T/C was 86.9%.

Turning to `NC1c2ccccc2OC12CCN(c1cnc3c(N4CCCc5ncccc54)n[nH]c3n1)CC2` (stereo unspecified) + C=CC(=O)N1CCN(c2nc(OCC3CCCN3C)nc3c(F)c(-c4nc(N)cc(C)c4C(F)(F)F)c(Cl)cc23)C(C)C1, the viability, T/C was 75.5%.

The experiment is the same for the next values; noted with them: second compound 0.00316 µM; first compound 3.16 µM; stronger effect = lower value.
Take `CCC(CC)c1cc(NC2CCC(N)C2)n2nccc2n1` (stereo unspecified) + C=CC(=O)N1CCN(c2nc(OCC3CCCN3C)nc3c(F)c(-c4nc(N)cc(C)c4C(F)(F)F)c(Cl)cc23)C(C)C1: the viability, T/C was 3.31%.
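Note: spheroids exposed to compound for seven days before viability readout.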
